Where no end group is shown, it is not given here.
Columns and labels:
S. aureus = assay: MIC, S. aureus; type: cell-based, Staphylococcus aureus; settings: S. aureus (ATCC 25923), 18 hours at 37° C.
From the text: To compare the antimicrobial activity among the peptides produced by the method of Example 1, the inventors of the present invention measured the minimal growth inhibitory concentration (MIC), which is minimum concentration of the peptide showing no dissociation of bacterial cells.
Specifically, the bacterial strain described in the following Table 2 was purchased and cultured to a mid-log phase in each medium with a composition suitable for each strain. Then, after dilution to bacterial cell concentration of 2×10^4 cells/100 μl, the cells were inoculated to a microtiter plate (NUNC, USA). Thereafter, Hp1404-T1, Hp1404-T1a, Hp1404-T1b, Hp1404-T1c, Hp1404-T1d or Hp1404-T1e peptide which has been synthesized in Example 1 above was subjected to serial dilution, ½ times for each, with BSA (bovine serum albumin) solution in a 96-well plate. After adding the cells to a plate, the cells were cultured for 18 hours at 37° C. By using a microtiter plate reader (Merck Elisa reader, Germany), the absorbance was measured at a wavelength of 600 nm to determine the MIC value of each bacterial strain. As a control group, Hp1404 as a mother peptide was used.

S. aureus (ATCC 25923) = assay: Anti-biofilm activity (crystal violet); type: cell-based, Staphylococcus aureus; settings: 24 hours at 37° C.
Experimental: To compare the antimicrobial activity among the peptides produced by the method of Example 1, the inventors of the present invention measured the biofilm inhibitory concentration value of the peptide showing no dissociation of bacterial cells.
Specifically, among the bacterial strains described in the above Table 2, bacteria showing favorable biofilm forming were cultured to a mid-log phase in each medium. Then, after dilution to bacterial cell concentration of 5×10^4 cells/100 μl, the cells were inoculated to a microtiter plate (PSL). Thereafter, Hp1404, Hp1404-T1c, Hp1404-T1d or Hp1s404-T1e peptide which has been synthesized in Example 1 above was diluted, 1/10 times for each, with 10 mM sodium phosphate (pH 7.2) solution in a 96-well plate. After adding the cells (10 μl) to a plate, the cells were cultured for 24 hours at 37° C. After removing the supernatant completely, the cells were fixed with 100% methanol for 15 minutes and reacted for 1 hour with Crystal violet staining solution followed by rinsing for 3 times. Then, after dissolving in 95% ethanol, the absorbance was measured at a wavelength of 595 nm by using a microtiter plate reader to determine the biofilm minimal inhibitory concentration value of each bacterial strain.

[1] = tested on: outer membrane of P. aeruginosa; assay: Outer membrane effect (NPN fluorescence); type: cell-based; settings: peptide at 1×, 2× or 4×MIC
Experimental: By using the peptides prepared by the method of Example 1, effect of the peptide on the outer membrane and inner membrane of bacteria was examined. […] However, once the hydrophobic part is exposed as a result of damage occurring in cell wall, NPN emits fluorescence. After culturing each strain in TSB and NB medium, the strain was adjusted such that it has OD600 value of 0.2 in 5 mM HEPES buffer solution. After allowing the reaction to occur between 10 μM NPN dissolved in 95% ethanol and the bacteria by adding them in a 96-well black plate, the peptide at a concentration of 1×, 2× or 4×MIC and 0.1% Triton X-100 were further added, and then the fluorescence was measured.

plasmid DNA (pRSETB) = assay: Binding between antimicrobial peptide and DNA (gel electrophoresis); settings: peptide/DNA ratio 0.25:1 to 4:1, 10 minutes at 37° C.
Experimental: To figure out the working mechanism of the synthetic peptides of the present invention for showing the antimicrobial activity, electrophoresis was carried out to examine the possible binding of synthetic peptides, i.e., Hp1404, […], Hp1404-T1d and Hp1404-T1e, to DNA as an internal material of bacteria.
Specifically, after reacting the plasmid DNA (pRSETB, 260 ng) with the peptide at different ratio (i.e., peptide/DNA ratio is as follows for lane number 1 to lane number 8: DNA only, 0.25:1, 0.5:1, 1:1, 1.5:1, 2:1, 3:1, and 4:1. respectively) for 10 minutes at 37° C., they were subjected to electrophoresis using 1% agarose gel followed by ethidium bromide (EtBr) staining and UV visualization.

[2] = tested on: Pseudomonas aeruginosa strain 1034; assay: In vivo antimicrobial activity, infected skin wound; design: species or system BALB/c mouse; number of colonies from skin tissues: reference not given here; settings: intracutaneous
Experimental: By using Hp1404-T1e found to have the most excellent antimicrobial activity among the peptides that are prepared by the method of Example 1, in vivo antimicrobial activity was measured. Specifically, among the Pseudomonas aeruginosa strains, strain 1034 was selected and tested. The strain was prepared by washing 3 times with PBS buffer. Ciprofloxacin antibiotic was used as a control group. A BALB/c mouse (6 week old) was shaved clean and a wound with pre-determined size was created thereon. Then, the wound site was injected intracutaneously with Pseudomonas aeruginosa strain 1034 ([…], 2×10^5 CFU/ml). After the bacterial infection, the peptide and antibiotic, each prepared at a concentration of 0.1 mg/ml and 0.2 mg/ml, respectively, were intracutaneously injected, and the observation was made everyday. On each day, the skin tissues were sampled and smeared on an NB solid medium. The smeared medium was incubated in an incubator for 18 hours, and the number of grown colonies was counted and expressed in %.

Substance | Minimal inhibitory concentration (S. aureus) [µM] | Biofilm minimal inhibitory concentration (S. aureus (ATCC 25923)) [µM] | NPN fluorescence (effect on outer membrane) [1] | binding to DNA (plasmid DNA (pRSETB)) | wound healing ([2]; 0.1 mg/ml and 0.2 mg/ml, observed everyday) | number of colonies from skin tissues ([2]; Day 5, 0.1 mg/ml treatment condition) [%] | number of colonies from skin tissues ([2]; Day 5, 0.2 mg/ml treatment condition) [%]
GILGKLWEGVKSIF-NH2 [Hp1404] | 3.13 | 3.13 | increases in treatment concentration-dependent manner | did not bind to any DNA |  |  | 
ILKKLLKKVKKI-NH2 [Hp1404-T1e] | 3.13 | 12.5 |  | bind to DNA | wound healing effect in peptide concentration-dependent manner | 40 | 20
ILKKLLKKVKSI-NH2 [Hp1404-T1d] | 6.25 | 6.25 |  | bind to DNA |  |  | 
